target: T1, ERα (Homo sapiens, UniProt P03372); test: Estrogen receptor degradation activity: breast cancer cell ERα in cell western assay; assay type: cell-based; details: MCF7 cells, 4 hours, relative to fulvestrant 0.1 μM positive control
T1 construct: host or cells: MCF7
T1 sequence (P03372 1-595): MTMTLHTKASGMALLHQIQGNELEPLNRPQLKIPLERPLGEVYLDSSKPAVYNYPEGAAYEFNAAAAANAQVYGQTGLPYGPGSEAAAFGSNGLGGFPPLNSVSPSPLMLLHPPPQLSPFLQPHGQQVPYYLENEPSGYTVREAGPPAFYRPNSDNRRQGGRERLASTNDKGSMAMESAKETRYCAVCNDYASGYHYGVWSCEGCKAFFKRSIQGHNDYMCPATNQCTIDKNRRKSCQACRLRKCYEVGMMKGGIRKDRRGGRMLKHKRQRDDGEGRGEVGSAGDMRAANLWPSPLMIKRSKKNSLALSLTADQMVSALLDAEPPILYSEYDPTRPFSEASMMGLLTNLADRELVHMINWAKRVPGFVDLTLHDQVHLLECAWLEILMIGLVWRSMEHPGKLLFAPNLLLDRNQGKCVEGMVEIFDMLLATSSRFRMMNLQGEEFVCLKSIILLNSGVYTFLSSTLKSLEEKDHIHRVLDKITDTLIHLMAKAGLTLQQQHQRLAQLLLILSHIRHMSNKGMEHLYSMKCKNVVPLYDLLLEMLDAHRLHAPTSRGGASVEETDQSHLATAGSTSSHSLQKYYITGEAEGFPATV
Protocol: Test: Estrogen Receptor Degradation Activity Said test involves measuring the in vitro degradation activity of the compounds of the Table 1a. The measurements of the degradation activities were made using a breast cancer cell ERα in cell western assay as described hereunder. MCF7 cells (ATCC) were seeded in 384 wells microplate (collagen coated) at a concentration of 10000 cells/30 μL per well in red phenol free MEM alpha medium (invitrogen) containing 5% charcoal dextran striped FBS. The following day, 9 points serial 1:5 dilution of each compound was added to the cells in 2.5p L at final concentrations ranging from 0.3-0.0000018 μM (in table 2), or 0.1 μM for fulvestrant (using as positive control). At 4 hours post compound addition the cells were fixed by adding 25 μL of formalin (final concentration 5% formalin containing 0.1% triton) for 10 minutes at room temperature and then washed twice with PBS. Then, 50 μL of LI-COR blocking buffer containing 0.1% Triton was added to plate for 30 minutes at room temperature. LI-COR blocking buffer was removed and cells were incubated overnight at cold room with 50 μL anti-ER rabbit monoclonal antibody (Thermo scientific MA1-39540) diluted at 1:1000 in LI-COR blocking buffer containing 0.1% tween-20. Wells which were treated with blocking buffer but no antibody were used as background control. Wells were washed twice with PBS (0.1% tween-20) and incubated at 37° C. for 60 minutes in LI-COR (0.1% tween-20) containing goat anti-rabbit antibody Alexa 488 (1:1000) and Syto-64 a DNA dye (2 μM final concentration). Cells were then washed 3 times in PBS and scanned in ACUMEN explorer (TTP-Labtech). Integrated intensities in the green fluorescence and red fluorescence were measured to determine the levels of ERα and DNA respectively. The degradation activity with respect to estrogen receptors in this test is given by the concentration which degrades 50% of the estrogen receptor (or IC50) in nM. The % of ERα levels decrease were determined as follows: % inhibition=100*(1−(sample−fulvestrant: DMSO−fulvestrant)).

% Degradation At 0.3 μM [%] | SMILES
90 | Cc1c(OC(F)(F)F)cccc1C1=C(c2ccc(CC3CN(CCCF)C3)cc2)c2ccc(C(=O)O)cc2CCC1 [Compound 6, 9-(4-((1-(3-fluoropropyl)azetidin-3-yl)methyl)phenyl)-8-(2-methyl-3-(trifluoromethoxy)phenyl)-6,7-dihydro-5H-benzo[7]annulene-3-carboxylic acid]
90 | Cc1cc(C2=C(c3ccc(CC4CN(CCCF)C4)cc3)c3ccc(C(=O)O)cc3CCC2)cc(C(F)(F)F)c1.Cl [Compound 34, 9-(4-((1-(3-fluoropropyl)azetidin-3-yl)methyl)phenyl)-8-(3-methyl-5-(trifluoromethyl)phenyl)-6,7-dihydro-5H-benzo[7]annulene-3-carboxylic acid, hydrochloride]
87 | O=C(O)c1ccc2c(c1)CCCC(c1cccc(Cl)c1OC(F)(F)F)=C2c1ccc(CC2CN(CCCF)C2)cc1 [Compound 5, 8-(3-chloro-2-(trifluoromethoxy)phenyl)-9-(4-((1-(3-fluoropropyl)azetidin-3-yl)methyl)phenyl)-6,7-dihydro-5H-benzo[7]annulene-3-carboxylic acid]
95 | COc1cc(C)c(C2=C(c3ccc(CC4CN(CCCF)C4)cc3)c3ccc(C(=O)O)cc3CCC2)c(C)c1 [Compound 55, 9-(4-((1-(3-fluoropropyl)azetidin-3-yl)methyl)phenyl)-8-(4-methoxy-2,6-dimethylphenyl)-6,7-dihydro-5H-benzo[7]annulene-3-carboxylic acid]
92 | COc1c(C)cccc1C1=C(c2ccc(CC3CN(CCCF)C3)cc2)c2ccc(C(=O)O)cc2CCC1.Cl [Compound 49, 9-(4-((1-(3-fluoropropyl)azetidin-3-yl)methyl)phenyl)-8-(2-methoxy-3-methylphenyl)-6,7-dihydro-5H-benzo[7]annulene-3-carboxylic acid, hydrochloride]
90 | Cc1ccc(C2=C(c3ccc(CC4CN(CCCF)C4)cc3)c3ccc(C(=O)O)cc3CCC2)c(C)c1Cl [Compound 58, 8-(3-chloro-2,4-dimethylphenyl)-9-(4-((1-(3-fluoropropyl)azetidin-3-yl)methyl)phenyl)-6,7-dihydro-5H-benzo[7]annulene-3-carboxylic acid]
92 | COc1cccc(F)c1C1=C(c2ccc(CC3CN(CCCF)C3)cc2)c2ccc(C(=O)O)cc2CCC1 [Compound 45, 8-(2-fluoro-6-methoxyphenyl)-9-(4-((1-(3-fluoropropyl)azetidin-3-yl)methyl)phenyl)-6,7-dihydro-5H-benzo[7]annulene-3-carboxylic acid]
88 | Cc1cc(C)c(C2=C(c3ccc(CC4CN(CCCF)C4)cc3)c3ccc(C(=O)O)cc3CCC2)c(Cl)c1 [Compound 53, 8-(2-chloro-4,6-dimethylphenyl)-9-(4-((1-(3-fluoropropyl)azetidin-3-yl)methyl)phenyl)-6,7-dihydro-5H-benzo[7]annulene-3-carboxylic acid]
92 | Cc1ccc(C2=C(c3ccc(CC4CN(CCCF)C4)cc3)c3ccc(C(=O)O)cc3CCC2)c(C)c1F [Compound 57, 8-(3-fluoro-2,4-dimethylphenyl)-9-(4-((1-(3-fluoropropyl)azetidin-3-yl)methyl)phenyl)-6,7-dihydro-5H-benzo[7]annulene-3-carboxylic acid]

Further lines, the molecule ahead of its results:

SMILES | % Degradation At 0.3 μM [%]
COc1cccc(C(F)(F)F)c1C1=C(c2ccc(CC3CN(CCCF)C3)cc2)c2ccc(C(=O)O)cc2CCC1 [Compound 63, 9-(4-((1-(3-fluoropropyl)azetidin-3-yl)methyl)phenyl)-8-(2-methoxy-6-(trifluoromethyl)phenyl)-6,7-dihydro-5H-benzo[7]annulene-3-carboxylic acid] | 90
Cl.O=C(O)c1ccc2c(c1)CCCC(c1ccc(C(F)(F)F)cc1C1CC1)=C2c1ccc(CC2CN(CCCF)C2)cc1 [Compound 32, 8-(2-cyclopropyl-4-(trifluoromethyl)phenyl)-9-(4-((1-(3-fluoropropyl)azetidin-3-yl)methyl)phenyl)-6,7-dihydro-5H-benzo[7]annulene-3-carboxylic acid, hydrochloride] | 91
O=C(O)c1ccc2c(c1)CCCC(c1cccc3c1CCCC3)=C2c1ccc(CC2CN(CCCF)C2)cc1 [Compound 2, 9-(4-((1-(3-fluoropropyl)azetidin-3-yl)methyl)phenyl)-8-(5,6,7,8-tetrahydronaphthalen-1-yl)-6,7-dihydro-5H-benzo[7]annulene-3-carboxylic acid] | 86
CC1(C)CCC(C2=C(c3ncc(CC4CN(CCC(F)F)C4)cc3F)c3ccc(C(=O)O)cc3CCC2)CC1 [Compound 13, 9-(5-((1-(3,3-difluoropropyl)azetidin-3-yl)methyl)-3-fluoropyridin-2-yl)-8-(4,4-dimethylcyclohexyl)-6,7-dihydro-5H-benzo[7]annulene-3-carboxylic acid] | 64
O=C(O)c1ccc2c(c1)CCCC(c1cccc(F)c1OC(F)F)=C2c1ccc(CC2CN(CCCF)C2)cc1 [Compound 1, 8-(2-(difluoromethoxy)-3-fluorophenyl)-9-(4-((1-(3-fluoropropyl)azetidin-3-yl)methyl)phenyl)-6,7-dihydro-5H-benzo[7]annulene-3-carboxylic acid] | 85
COc1ccc(C2=C(c3ccc(CC4CN(CCCF)C4)cc3)c3ccc(C(=O)O)cc3CCC2)c(C(F)F)c1 [Compound 24, 8-(2-(difluoromethyl)-4-methoxyphenyl)-9-(4-((1-(3-fluoropropyl)azetidin-3-yl)methyl)phenyl)-6,7-dihydro-5H-benzo[7]annulene-3-carboxylic acid] | 92
O=C(O)c1ccc2c(c1)CCCC(c1ccc(C(F)(F)F)cc1C(F)(F)F)=C2c1ccc(CC2CN(CCCF)C2)cc1 [Compound 39, 8-(2,4-bis(trifluoromethyl)phenyl)-9-(4-((1-(3-fluoropropyl)azetidin-3-yl)methyl)phenyl)-6,7-dihydro-5H-benzo[7]annulene-3-carboxylic acid] | 95
CCc1cccc(C2=C(c3ccc(CC4CN(CCCF)C4)cc3)c3ccc(C(=O)O)cc3CCC2)c1C(F)(F)F [Compound 68, 8-(3-ethyl-2-(trifluoromethyl)phenyl)-9-(4-((1-(3-fluoropropyl)azetidin-3-yl)methyl)phenyl)-6,7-dihydro-5H-benzo[7]annulene-3-carboxylic acid] | 92
COc1ccc(C(F)(F)F)cc1C1=C(c2ccc(CC3CN(CCCF)C3)cc2)c2ccc(C(=O)O)cc2CCC1.Cl [Compound 28, 9-(4-((1-(3-fluoropropyl)azetidin-3-yl)methyl)phenyl)-8-(2-methoxy-5-(trifluoromethyl)phenyl)-6,7-dihydro-5H-benzo[7]annulene-3-carboxylic acid, hydrochloride] | 80
COc1cccc(C2=C(c3ccc(CC4CN(CCCF)C4)cc3)c3ccc(C(=O)O)cc3CCC2)c1C(F)F [Compound 8, 8-(2-(difluoromethyl)-3-methoxyphenyl)-9-(4-((1-(3-fluoropropyl)azetidin-3-yl)methyl)phenyl)-6,7-dihydro-5H-benzo[7]annulene-3-carboxylic acid] | 89
O=C(O)c1ccc2c(c1)CCCC(C1CC(CO)C1)=C2c1ccc(CC2CN(CCCF)C2)cc1 (stereo not drawn) [Compound 21, 9-(4-((1-(3-fluoropropyl)azetidin-3-yl)methyl)phenyl)-8-(3-(hydroxymethyl)cyclobutyl)-6,7-dihydro-5H-benzo[7]annulene-3-carboxylic acid] | 100
O=C(O)c1ccc2c(c1)CCCC(C1CCC(CO)C1)=C2c1ccc(CC2CN(CCCF)C2)cc1 (stereo not drawn) [Compound 3, 9-(4-((1-(3-fluoropropyl)azetidin-3-yl)methyl)phenyl)-8-(3-(hydroxymethyl)cyclopentyl)-6,7-dihydro-5H-benzo[7]annulene-3-carboxylic acid] | 77
